In patent US8795734B2, “Hydrophobic nanotubes and nanoparticles as transporters for the delivery of drugs into cells” (The Board of Trustees of the Leland Stanford Junior …, priority 2005, dated 2014):

What was measured:
[1] = test system: CXCR4; assay: Silencing by PL-PEG-s-s-siRNA conjugates of different nanoparticles; type: cell-based
Excerpt: Conjugates as prepared according to Examples 24-27 were made with nanoparticles other than SWNTs. It was shown that MWNTs, carbon black nanoparticles can all be used to make noncovalent PL-PEG-s-s-siRNA conjugates. […] Referring to FIG. 10A, the silencing effect for these conjugates is shown with reference to SWNT conjugates. The experiments were done with the following:
Referring now to FIG. 10B, CXCR4 silencing is shown for different nanoparticles. Polystyrene spheres (PS, 20 nm and 50 nm) were also used to make noncovalent PL-PEG-s-s-siRNA conjugates. […] The data in FIG. 10B below compares the RNAi effects of PS delivery vs. nanotube delivery.

[2] = test system: HL60 cells; assay: Cellular uptake of SWNT conjugates by confocal microscopy and flow cytometry; type: cell-based, human; details: protein alone, versus untreated cells
Method: HL60 and Jurkat cells were both grown in RPMI-1640 cell culture medium (Invitrogen) supplemented with 10% fetal bovine serum (FBS). Prior to incubation, the cells were collected by centrifugation and resuspended in RPMI medium at a cell density of 3μ 10^6 cells/mL. Incubation of cells in a nanotube solution was done by mixing 100 μL of the cell suspension with 100 μL of a SWNT solution (2, 3 or 4) at 37° C. unless otherwise stated. The concentration of SWNT in the incubation solution was ˜0.05 mg/mL unless otherwise stated, and the incubation duration was always 1 h in 5% CO2 atmosphere except for time dependent incubation experiments. After incubation, the cells were washed and collected by centrifugation twice, and resuspended in RPMI medium.
FM4-64 (Molecular Probes Inc.) is a classical marker used for staining membrane and endosomes. The cell incubations were carried out under similar conditions as discussed in the previous section, except that FM 4-64 (2% v/v) was added to the incubation mixture. […]
Also, cells were analyzed by a Becton-Dickinson FACScan instrument after incubation in various nanotube solutions. […] We carried out dual detection of red and green fluorescence with the cells. The data presented here represent the mean green fluorescence obtained with a population of 10,000 live cells.

[3] = test system: HL60 and HeLa cells; assay: Internalization of SWNT-protein, SWNT-DNA and SWNT-SS-DNA conjugates (fluorescence confocal, flow cytometry); type: cell-based, human
Method: Two cell lines, human promyelomonocytic HL60 cells and cervical cancer HeLa cells were used in the current work. HL60 were cultured in RPMI medium supplemented with 10% fetal bovine serum (FBS), while HeLa cells were cultured in DMEM medium supplemented with 10% FBS and 1% penicillin-streptomycin. The cells were suspended in phosphate buffered saline (PBS), mixed with a SWNT conjugate and incubated for 1-3 h at 37° C., except for the low temperature incubations. The concentration of SWNTs in the incubation solution was typically ˜2.5 mg/L as measured by UV-vis-NIR absorption spectrum, and the cell density was ˜2×10^5 cells/well. Adherent HeLa cells were either trypsinized to detach from the Petri dishes to form a suspension or were seeded overnight in chambered cover-slides.
Both the protein and DNA molecules were labeled with a fluorescent tag (by either Cy3 or Alexa Fluor 488) to allow for confocal fluorescence imaging and flow cytometry analysis.
We carried out incubations of protein-SWNT and DNA-SWNT with HL60 and HeLa cells at 4° C. and with cells pretreated with NaN3.

[4] = test system: HL-60 cells; assay: Cell proliferation CellTiter 96 MTS assay; type: cell-based, human; details: 2 h incubation, monitored up to 5 days versus untreated cells
Method: After incubation with the SWNT-streptavidin conjugate (unlabeled), HL-60 cells were washed and resuspended in RPMI media. The cells were plated in a 6-well plate at a density of ˜8×10^3 cells/well. At 24 h interval, Celltiter96 reagent (Promega) was added to one of the wells and allowed to incubate for ˜2-3 h at 37° C. and 5% CO2. The CellTiter 96 assay uses the tetrazolium compound (3-(4,5-dimethylthiazol-2-yl)-5-(3-carboxymethoxyphenyl)-2-(4-sulfophenyl)-2H-tetrazolium, inner salt; MTS) and the electron-coupling reagent, phenazine methosulfate (PMS). […] The measurement of the absorbance of the formazan can be carried out at 490 nm. […]
We used the CellTiter 96 MTS assay (Promega) to examine the proliferation of HL60 cells following exposure to SWNT-protein conjugates. […] The absorbance of the formazan salt can be measured at 490 nm and correlates to the number of cells in the suspension. The absorbance from the cells incubated with the SWNT-protein conjugates was measured over a period of 5 days in parallel with control cells never exposed to any nanotubes. The absorbance detected by a UV-VIS spectrophotometer was very similar for cells with and without exposure to SWNTs over the 5-day monitoring period.
Cells were incubated with SWNT-SA conjugate (without fluorescent label) for 2 hrs. […] The absorbance is then taken at 490 nm.

[5] = test system: HL-60 cells; assay: Cell viability study with PEG-phospholipid functionalized SWNTs (propidium iodide); type: cell-based
Method: HL-60 cells were incubated and then washed to remove excess nanotubes, as described above. The cells were then placed into the incubator for an additional 24 h with the RPMI medium. The cells were then examined through a confocal microscope, after being stained with 2% (v/v) of propidium iodide (Biochemika), a common stain for dead cells. Control experiments were carried out for cells without exposure to nanotubes.
The confocal images (not shown) of HL-60 cells were obtained (a) untreated (b) treated with FTIC-PEG-PE modified CNTs for 90 min at 37° C. Cells were washed and allowed to incubate for an additional 24 h prior to confocal analysis. Propidium iodide is added to the suspension in order to stain for dead cells (red cells in the images).

[6] = test system: NIH-3T3 cells; assay: Apoptosis assay by Annexin V-FITC staining; type: cell-based
Excerpt: We use Annexin V labeled with fluorescein isothiocyanate (Molecular Probes) as an early stage apoptosis marker. One of the earliest indications of apoptosis is the translocation of the membrane phospholipid phosphatidylserine (PS) from the inner to the outer leaflet of the plasma membrane. Once exposed to the extracellular environment, binding sites on PS become available for Annexin V, a ˜35 kDa Ca^2+-dependent, phospholipid binding protein with a high affinity for PS (Pigault, C.; Follenius-Wund, A.; Schmutz, M.; Freyssinet, J.; Brisson, A. J. Mol. Biol. 1994, 236, 199) (also see Sigma Technical Bulletin number MB-390). In this study, NIH 3T3 cells were plated and incubated with SWNT-cytochrome c as described above. […] The cells were co-stained with propidium iodide and immediately analyzed by flow cell cytometry. Apoptosis data in FIG. 3 were for cells free of PI-staining recorded ˜4-5 h after exposure to chloroquine with or without (for control) cyt c-SWNT conjugates.
HeLa (human cervix carcinoma) and NIH-3T3 cell lines, shown previously to undergo cyt-c-induced apoptosis were investigated in this study for intracellular transporting of cyt-c with SWNTs and for apoptosis assay (Cai). Unlike the proteins used for other uptake experiments, cyt-c used for binding to SWNTs and transported inside cells for apoptosis assay were free of any fluorescence label. […]

[7] = test system: endosomal compartments of cells; assay: Endosome release of protein-SWNT conjugates by chloroquine (confocal); type: cell-based
Excerpt: A.; Murthy, N.; Press, O. W.; Tirrell, D. A.; Hoffman, A. S.; Stayton, P. S. Bioconj. Chem. 1999, 10, 401; Cho, Y. W.; Kim, J. D.; Park, K. J. Pharm. Pharmacol. 2003, 55, 721). These methods make use of the pH difference across the endosome membrane and the pH response of the polymers or amines. For SWNT transporters, similar complexation schemes can be developed to afford nanotube transporters containing an endosome-releasing agent. While such an effort warrants detailed investigations separately from the current work, we describe here the release of internalized protein-SWNT conjugates from the endosomal compartments by adding chloroquine to cell medium during incubation of cells in protein-SWNT conjugates. […] The resulting osmotic pressure can lead to swelling of the endosomal compartments and eventual rupture (Ogris, M.; Steinlein, P.; Kursa, M.; Mechtler, K.; Kircheis, R.; Wagner, E. Gene Ther. 1998, 5, 1425).
In experiments carried out with and without chloroquine, we noticed a difference in the distribution of the detected fluorescence inside the cells. […] FIG. 2 (a) Cells are incubated with (a) SWNT-CytC conjugate and (b) SWNT-CytC+100 μM of chloroquine at 37° C. and 5% CO2 Confocal images are taken immediately after incubation and washing. […]

Substance: Carbon black
- cell entry and siRNA delivery [1]: able to enter cells and deliver siRNA into cells
- silencing effect compared to SWNT conjugates (FIG. 10A) ([1]; ~20 nM nanoparticle): greater silencing efficiency at day 3

Substance: SA: Fluoresceinated streptavidin protein alone, MW ~60 kD
- fluorescence of cells by flow cytometry [2]: only slightly greater than the background fluorescence of untreated cells

Substance: SWNT-protein: Fluorescently labeled BSA non-specifically bound to oxidized Hipco SWNTs
- cellular internalization ([3]; 1-3 h at 37 °C): cellular internalization
- level of fluorescence in the cells ([3]; 4 °C incubation and NaN3 pretreatment (ATP depletion)): considerably lower

Substance: SWNT-SA conjugate: Streptavidin without fluorescent label non-specifically bound to oxidized SWNTs
- cell proliferation (absorbance at 490 nm) [4]: does not show any deviation from the proliferation of untreated cells

Substance: Tween-20
- effect of surfactant exposure on cells [5]: Cells tended to die

Substance: cyt-c-SWNT: Cytochrome c (12 kD) non-covalently bound to oxidized SWNTs
- percentage of apoptosed cells versus cyt-c alone ([6]; Annexin V-FITC staining): significantly higher percentages of apoptosed cells
- degree of apoptosis with versus without chloroquine ([6]; in the presence of chloroquine): Higher degrees of apoptosis
- distribution of fluorescence inside the cells ([7]; 100 μM chloroquine): diffuse and uniform
- distribution of fluorescence inside the cells ([7]; absence of chloroquine): discrete punctate fluorescence spots
